Reference: ChEMBL document CHEMBL4765228, “Indole-like Trk receptor antagonists” (Eur J Med Chem, 2016)

Legend:
[1] = molecular target: Glycogen synthase kinase-3 beta (Homo sapiens) (UniProt P49841); test: Inhibition of human GSK3-beta assessed as residual activity at 0.1 uM relative to control
[2] = molecular target: Serine/threonine-protein kinase PLK1 (Homo sapiens) (UniProt P53350); test: Inhibition of human PLK1 assessed as residual activity at 0.1 uM relative to control
[3] = molecular target: Receptor-interacting serine/threonine-protein kinase 2 (Homo sapiens) (UniProt O43353); test: Inhibition of human RIPK2 assessed as residual activity at 0.1 uM relative to control
Homo sapiens = organism: Homo sapiens; test: Inhibition of human S6K assessed as residual activity at 0.1 uM relative to control
[4] = molecular target: 5'-AMP-activated protein kinase catalytic subunit alpha-1 (Homo sapiens) (UniProt Q13131); test: Inhibition of human AMPKalpha1 (1 to 550 residues assessed as residual activity at 1 uM relative to control
[5] = molecular target: High affinity nerve growth factor receptor (Homo sapiens, UniProt P04629); test: Inhibition of human TRKA assessed as residual activity at 0.1 uM relative to control
[6] = molecular target: T1, Serine/threonine-protein kinase D1 (Homo sapiens) (UniProt Q15139); test: Inhibition of human PKCmu assessed as residual activity at 0.1 uM relative to control
T1 sequence (whole entry): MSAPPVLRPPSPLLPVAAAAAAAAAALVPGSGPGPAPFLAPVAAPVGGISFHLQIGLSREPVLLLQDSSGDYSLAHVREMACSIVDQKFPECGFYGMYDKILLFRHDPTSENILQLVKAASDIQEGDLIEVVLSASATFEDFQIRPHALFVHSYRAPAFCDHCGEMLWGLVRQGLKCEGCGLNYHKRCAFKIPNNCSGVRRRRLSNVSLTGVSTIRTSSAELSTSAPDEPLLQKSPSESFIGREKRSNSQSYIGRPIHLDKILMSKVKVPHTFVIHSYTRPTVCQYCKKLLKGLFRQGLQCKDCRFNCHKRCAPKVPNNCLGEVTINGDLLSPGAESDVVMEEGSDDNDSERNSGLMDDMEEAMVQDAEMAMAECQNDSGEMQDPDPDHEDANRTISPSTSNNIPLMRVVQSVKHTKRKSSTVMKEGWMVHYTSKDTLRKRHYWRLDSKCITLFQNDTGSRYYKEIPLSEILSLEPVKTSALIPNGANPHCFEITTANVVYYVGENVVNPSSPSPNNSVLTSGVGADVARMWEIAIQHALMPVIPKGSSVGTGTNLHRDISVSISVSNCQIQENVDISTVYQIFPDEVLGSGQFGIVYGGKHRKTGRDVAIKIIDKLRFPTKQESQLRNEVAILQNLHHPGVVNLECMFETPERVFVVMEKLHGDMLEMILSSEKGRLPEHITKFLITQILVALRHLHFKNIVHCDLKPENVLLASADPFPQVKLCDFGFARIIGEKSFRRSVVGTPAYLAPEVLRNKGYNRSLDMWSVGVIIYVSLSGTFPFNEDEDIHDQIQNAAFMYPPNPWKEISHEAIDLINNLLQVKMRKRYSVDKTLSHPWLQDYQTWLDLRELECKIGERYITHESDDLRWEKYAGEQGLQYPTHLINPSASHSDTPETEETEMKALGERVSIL

[7] = molecular target: Tyrosine-protein kinase BTK (Homo sapiens) (UniProt Q06187); test: Inhibition of human BTK assessed as residual activity at 1 uM relative to control
[8] = molecular target: Tyrosine-protein kinase JAK2 (Homo sapiens) (UniProt O60674); test: Inhibition of human JAK2 assessed as residual activity at 1 uM relative to control
[9] = molecular target: Proto-oncogene tyrosine-protein kinase Src (Homo sapiens) (UniProt P12931); test: Inhibition of human GST-HIS-tagged SRC assessed as residual activity at 0.1 uM relative to control
[10] = molecular target: Calcium/calmodulin-dependent protein kinase type 1D (Homo sapiens) (UniProt Q8IU85); test: Inhibition of human CAMK1D assessed as residual activity at 0.1 uM relative to control
[11] = molecular target: Calcium/calmodulin-dependent protein kinase type 1D (Homo sapiens) (UniProt Q8IU85); test: Inhibition of human CAMK1D assessed as residual activity at 1 uM relative to control
[12] = molecular target: Myosin light chain kinase, smooth muscle (Homo sapiens) (UniProt Q15746); test: Inhibition of human MYLK assessed as residual activity at 0.1 uM relative to control
[13] = molecular target: MAP/microtubule affinity-regulating kinase 3 (Homo sapiens) (UniProt P27448); test: Inhibition of human MARK3 assessed as residual activity at 1 uM relative to control
[14] = molecular target: Casein kinase II subunit alpha (Homo sapiens) (UniProt P68400); test: Inhibition of human CK2alpha1 assessed as residual activity at 0.1 uM relative to control
[15] = molecular target: Serine/threonine-protein kinase PLK1 (Homo sapiens) (UniProt P53350); test: Inhibition of human PLK1 assessed as residual activity at 1 uM relative to control
[16] = molecular target: T2, Serine/threonine-protein kinase Sgk1 (Homo sapiens) (UniProt O00141); test: Inhibition of human SGK1 assessed as residual activity at 0.1 uM relative to control
T2 sequence (whole entry): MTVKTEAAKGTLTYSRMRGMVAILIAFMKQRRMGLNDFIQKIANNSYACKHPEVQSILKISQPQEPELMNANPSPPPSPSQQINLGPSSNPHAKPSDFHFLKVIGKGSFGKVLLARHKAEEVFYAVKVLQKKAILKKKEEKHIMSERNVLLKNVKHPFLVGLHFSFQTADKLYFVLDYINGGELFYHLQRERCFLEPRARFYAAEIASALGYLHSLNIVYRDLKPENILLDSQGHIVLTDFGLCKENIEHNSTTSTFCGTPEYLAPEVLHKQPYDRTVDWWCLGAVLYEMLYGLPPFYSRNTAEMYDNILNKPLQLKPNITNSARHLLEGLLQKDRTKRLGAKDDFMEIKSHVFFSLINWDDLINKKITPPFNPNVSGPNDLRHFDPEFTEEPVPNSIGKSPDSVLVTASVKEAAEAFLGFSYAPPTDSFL

Glycogen synthase kinase-3 beta (Homo sapiens), sequence (P49841 whole entry, looked up): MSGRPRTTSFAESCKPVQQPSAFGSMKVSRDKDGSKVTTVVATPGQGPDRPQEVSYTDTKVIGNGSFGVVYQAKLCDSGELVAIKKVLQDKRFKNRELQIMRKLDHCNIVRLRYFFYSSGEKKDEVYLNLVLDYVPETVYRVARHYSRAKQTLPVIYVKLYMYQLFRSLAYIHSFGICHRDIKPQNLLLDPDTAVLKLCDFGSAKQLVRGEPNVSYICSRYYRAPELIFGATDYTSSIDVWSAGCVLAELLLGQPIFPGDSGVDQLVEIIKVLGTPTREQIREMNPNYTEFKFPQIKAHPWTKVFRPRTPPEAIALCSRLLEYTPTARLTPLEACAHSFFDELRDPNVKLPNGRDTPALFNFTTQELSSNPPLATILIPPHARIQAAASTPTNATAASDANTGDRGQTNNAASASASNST
Tyrosine-protein kinase JAK2 (Homo sapiens), sequence (O60674 whole entry): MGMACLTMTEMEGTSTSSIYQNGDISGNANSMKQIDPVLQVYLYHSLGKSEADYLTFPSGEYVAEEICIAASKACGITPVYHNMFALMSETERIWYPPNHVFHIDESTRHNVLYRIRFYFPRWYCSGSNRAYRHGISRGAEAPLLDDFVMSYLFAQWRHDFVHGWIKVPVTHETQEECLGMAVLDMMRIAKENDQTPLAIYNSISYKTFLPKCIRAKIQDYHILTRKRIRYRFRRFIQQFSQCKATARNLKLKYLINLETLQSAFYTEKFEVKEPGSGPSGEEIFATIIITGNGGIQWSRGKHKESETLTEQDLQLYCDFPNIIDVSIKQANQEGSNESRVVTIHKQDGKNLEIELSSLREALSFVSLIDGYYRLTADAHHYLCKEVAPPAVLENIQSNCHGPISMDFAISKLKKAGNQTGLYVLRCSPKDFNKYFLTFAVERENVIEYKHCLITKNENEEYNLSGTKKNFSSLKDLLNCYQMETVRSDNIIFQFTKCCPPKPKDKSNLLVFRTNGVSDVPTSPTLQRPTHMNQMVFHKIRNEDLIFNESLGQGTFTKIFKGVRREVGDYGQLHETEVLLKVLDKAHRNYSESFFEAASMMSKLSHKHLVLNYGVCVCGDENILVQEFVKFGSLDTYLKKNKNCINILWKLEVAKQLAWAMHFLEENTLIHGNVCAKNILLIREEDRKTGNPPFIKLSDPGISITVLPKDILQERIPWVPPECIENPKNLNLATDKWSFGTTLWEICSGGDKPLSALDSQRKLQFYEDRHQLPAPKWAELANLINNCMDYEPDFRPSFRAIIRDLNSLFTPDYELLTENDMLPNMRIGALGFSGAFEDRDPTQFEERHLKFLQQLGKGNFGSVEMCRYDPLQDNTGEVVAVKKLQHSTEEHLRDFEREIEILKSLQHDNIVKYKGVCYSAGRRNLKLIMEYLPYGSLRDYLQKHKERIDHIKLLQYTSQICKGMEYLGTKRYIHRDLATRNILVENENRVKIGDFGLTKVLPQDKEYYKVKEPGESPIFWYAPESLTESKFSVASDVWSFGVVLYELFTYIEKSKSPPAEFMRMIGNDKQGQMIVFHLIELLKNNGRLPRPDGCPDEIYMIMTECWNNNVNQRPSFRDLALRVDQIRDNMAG
Tyrosine-protein kinase BTK (Homo sapiens), sequence (Q06187 whole entry): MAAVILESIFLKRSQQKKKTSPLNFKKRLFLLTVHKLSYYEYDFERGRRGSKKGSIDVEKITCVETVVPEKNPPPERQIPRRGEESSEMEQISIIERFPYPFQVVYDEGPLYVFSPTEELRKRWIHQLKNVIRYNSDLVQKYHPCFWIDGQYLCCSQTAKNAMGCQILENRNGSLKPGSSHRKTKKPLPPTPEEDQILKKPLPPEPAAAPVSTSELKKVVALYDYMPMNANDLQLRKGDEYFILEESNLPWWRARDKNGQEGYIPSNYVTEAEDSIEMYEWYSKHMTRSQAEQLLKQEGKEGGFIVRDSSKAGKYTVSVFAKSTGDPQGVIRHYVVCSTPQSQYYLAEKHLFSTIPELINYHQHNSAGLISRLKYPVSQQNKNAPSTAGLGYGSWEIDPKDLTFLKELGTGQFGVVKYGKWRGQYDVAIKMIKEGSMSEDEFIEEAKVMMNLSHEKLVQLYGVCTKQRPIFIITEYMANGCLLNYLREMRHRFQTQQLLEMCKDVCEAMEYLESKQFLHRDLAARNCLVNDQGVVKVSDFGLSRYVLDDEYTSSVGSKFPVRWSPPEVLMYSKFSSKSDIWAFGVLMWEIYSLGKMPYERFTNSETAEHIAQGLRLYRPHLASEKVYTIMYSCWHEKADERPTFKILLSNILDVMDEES
Proto-oncogene tyrosine-protein kinase Src (Homo sapiens), sequence (P12931 2-536 limits assumed): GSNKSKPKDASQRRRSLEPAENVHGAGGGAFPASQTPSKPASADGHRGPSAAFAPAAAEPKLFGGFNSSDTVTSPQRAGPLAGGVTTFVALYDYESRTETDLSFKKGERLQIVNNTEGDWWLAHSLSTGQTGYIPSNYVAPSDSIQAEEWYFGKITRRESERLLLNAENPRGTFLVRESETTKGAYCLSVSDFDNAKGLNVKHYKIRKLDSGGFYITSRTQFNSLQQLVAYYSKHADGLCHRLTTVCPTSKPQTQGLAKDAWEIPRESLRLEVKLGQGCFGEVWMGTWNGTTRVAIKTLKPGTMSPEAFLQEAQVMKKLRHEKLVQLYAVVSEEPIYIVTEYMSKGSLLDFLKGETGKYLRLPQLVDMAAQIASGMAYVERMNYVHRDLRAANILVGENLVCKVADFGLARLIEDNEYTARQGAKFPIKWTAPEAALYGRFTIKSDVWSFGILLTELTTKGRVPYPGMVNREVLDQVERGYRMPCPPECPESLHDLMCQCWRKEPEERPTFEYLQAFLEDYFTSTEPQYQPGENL
Casein kinase II subunit alpha (Homo sapiens), sequence (P68400 whole entry, looked up): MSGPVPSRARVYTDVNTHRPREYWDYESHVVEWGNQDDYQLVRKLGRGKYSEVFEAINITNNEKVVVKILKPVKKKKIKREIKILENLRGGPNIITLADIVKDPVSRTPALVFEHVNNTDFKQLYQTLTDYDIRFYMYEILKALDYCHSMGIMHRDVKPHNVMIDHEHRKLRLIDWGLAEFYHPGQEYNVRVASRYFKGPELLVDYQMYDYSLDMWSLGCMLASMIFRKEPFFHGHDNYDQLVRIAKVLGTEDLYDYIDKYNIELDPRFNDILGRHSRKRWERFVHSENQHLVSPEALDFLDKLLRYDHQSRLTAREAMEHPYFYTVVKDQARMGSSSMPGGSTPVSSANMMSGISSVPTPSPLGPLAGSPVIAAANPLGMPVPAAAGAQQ
Calcium/calmodulin-dependent protein kinase type 1D (Homo sapiens), sequence (Q8IU85 whole entry, looked up): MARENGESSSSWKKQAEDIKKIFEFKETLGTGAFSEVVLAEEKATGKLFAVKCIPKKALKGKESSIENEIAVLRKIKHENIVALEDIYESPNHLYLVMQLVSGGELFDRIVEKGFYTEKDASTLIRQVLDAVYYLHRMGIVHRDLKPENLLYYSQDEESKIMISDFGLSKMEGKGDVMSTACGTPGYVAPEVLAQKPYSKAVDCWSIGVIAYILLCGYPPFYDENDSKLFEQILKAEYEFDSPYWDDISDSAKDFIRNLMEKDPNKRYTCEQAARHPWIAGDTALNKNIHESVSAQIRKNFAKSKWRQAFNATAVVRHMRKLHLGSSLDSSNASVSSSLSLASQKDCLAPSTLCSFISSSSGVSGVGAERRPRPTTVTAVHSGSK
Serine/threonine-protein kinase PLK1 (Homo sapiens), sequence (P53350 whole entry): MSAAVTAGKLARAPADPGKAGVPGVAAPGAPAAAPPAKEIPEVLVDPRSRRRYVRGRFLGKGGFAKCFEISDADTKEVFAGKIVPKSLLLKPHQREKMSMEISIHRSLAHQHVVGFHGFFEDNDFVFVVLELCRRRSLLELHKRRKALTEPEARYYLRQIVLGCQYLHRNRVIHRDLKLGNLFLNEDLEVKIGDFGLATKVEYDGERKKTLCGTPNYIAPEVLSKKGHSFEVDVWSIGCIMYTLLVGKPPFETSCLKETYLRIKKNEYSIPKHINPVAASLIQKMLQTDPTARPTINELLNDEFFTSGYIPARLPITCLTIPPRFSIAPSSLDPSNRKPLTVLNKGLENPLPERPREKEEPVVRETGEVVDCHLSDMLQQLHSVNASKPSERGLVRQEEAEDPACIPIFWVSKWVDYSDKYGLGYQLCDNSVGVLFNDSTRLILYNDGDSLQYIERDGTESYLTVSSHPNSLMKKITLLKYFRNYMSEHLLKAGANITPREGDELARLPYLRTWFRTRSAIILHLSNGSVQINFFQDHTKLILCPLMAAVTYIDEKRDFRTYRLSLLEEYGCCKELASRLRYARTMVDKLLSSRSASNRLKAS
5'-AMP-activated protein kinase catalytic subunit alpha-1 (Homo sapiens), sequence (Q13131 whole entry, looked up, the tested form may be a part): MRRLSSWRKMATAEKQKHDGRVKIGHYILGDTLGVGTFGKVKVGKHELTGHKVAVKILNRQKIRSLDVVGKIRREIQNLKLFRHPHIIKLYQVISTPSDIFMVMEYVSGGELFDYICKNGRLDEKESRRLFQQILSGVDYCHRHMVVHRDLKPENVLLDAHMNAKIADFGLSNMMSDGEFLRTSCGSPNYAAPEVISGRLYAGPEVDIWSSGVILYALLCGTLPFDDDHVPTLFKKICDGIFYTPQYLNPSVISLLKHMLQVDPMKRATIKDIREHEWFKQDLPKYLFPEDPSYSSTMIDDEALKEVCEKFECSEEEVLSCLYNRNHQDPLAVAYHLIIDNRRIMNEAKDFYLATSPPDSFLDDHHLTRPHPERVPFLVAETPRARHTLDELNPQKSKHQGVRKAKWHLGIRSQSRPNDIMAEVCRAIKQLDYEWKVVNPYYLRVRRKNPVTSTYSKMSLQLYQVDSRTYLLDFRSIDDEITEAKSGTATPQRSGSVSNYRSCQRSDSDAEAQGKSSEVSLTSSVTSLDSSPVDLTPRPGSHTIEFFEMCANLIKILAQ

Work on `COc1ccc2c(c1)c(/C=C1\C(=O)Nc3ccc(S(N)(=O)=O)cc31)cn2C` yielded an Activity [1] of 93%, an Activity [2] of 93% and an Activity [3] of 100%. It also gave an Activity (Homo sapiens) of 92%, an Activity [4] of 89% and an Activity [5] of 3%. The Activity [6] was 90%, the Activity [7] was 107% and the Activity [8] was 86%. For the same compound, the Activity [9] was 113%, the Activity [10] was 84% and the Activity [11] was 97%. It also gave an Activity [12] of 94%, an Activity [13] of 90% and an Activity [14] of 101%. For the same compound, the Activity [15] was 93% and the Activity [16] was 80%.
`COc1ccc2c(c1)c(/C=C1\C(=O)Nc3ccc(S(=O)(=O)N(C)C)cc31)cn2C` showed an Activity [1] of 98%, an Activity [2] of 83% and an Activity [3] of 104%. It also gave an Activity (Homo sapiens) of 87%, an Activity [4] of 91% and an Activity [5] of 18%. For the same compound, the Activity [6] was 89%, the Activity [7] was 89% and the Activity [8] was 72%. For the same compound, the Activity [9] was 93%, the Activity [10] was 99% and the Activity [11] was 94%. For the same compound, the Activity [12] was 94%, the Activity [13] was 97% and the Activity [14] was 98%. The Activity [15] was 93% and the Activity [16] was 90%.
In the case of `CN(C)S(=O)(=O)c1ccc2c(c1)/C(=C/c1cn(C)c3ccc(O)cc13)C(=O)N2`, the Activity [1] is reported as 99%, the Activity [2] is reported as 93% and the Activity [3] is reported as 94%. For the same compound, the Activity (Homo sapiens) was 87%, the Activity [4] was 87% and the Activity [5] was 10%. It also gave an Activity [6] of 99%, an Activity [7] of 107% and an Activity [8] of 55%. The Activity [9] was 79%, the Activity [10] was 100% and the Activity [11] was 103%. The Activity [12] was 91%, the Activity [13] was 96% and the Activity [14] was 97%. The Activity [15] was 91% and the Activity [16] was 87%.
`CNS(=O)(=O)c1ccc2c(c1)/C(=C/c1cn(C)c3ccc(OC)cc13)C(=O)N2` showed an Activity [1] of 90%, an Activity [2] of 92% and an Activity [3] of 108%. It also gave an Activity (Homo sapiens) of 96%, an Activity [4] of 88% and an Activity [5] of 4%. The Activity [6] was 92%, the Activity [7] was 73% and the Activity [8] was 87%. It also gave an Activity [9] of 92%, an Activity [10] of 90% and an Activity [11] of 80%. For the same compound, the Activity [12] was 92%, the Activity [13] was 87% and the Activity [14] was 105%. The Activity [15] was 87% and the Activity [16] was 94%.
For `Cn1cc(/C=C2\C(=O)Nc3ccc(S(N)(=O)=O)cc32)c2ccccc21`, the Activity [1] was 104%, the Activity [2] was 102% and the Activity [3] was 102%. The Activity (Homo sapiens) was 90%, the Activity [4] was 56% and the Activity [5] was 3%. It also gave an Activity [6] of 95%, an Activity [7] of 119% and an Activity [8] of 67%. For the same compound, the Activity [9] was 124%, the Activity [10] was 106% and the Activity [11] was 90%. For the same compound, the Activity [12] was 97%, the Activity [13] was 88% and the Activity [14] was 102%. For the same compound, the Activity [15] was 91% and the Activity [16] was 81%.
For `COc1ccc2[nH]cc(/C=C3\C(=O)Nc4ccc(S(N)(=O)=O)cc43)c2c1`, the Activity [1] was 103%, the Activity [2] was 93% and the Activity [3] was 96%. It also gave an Activity (Homo sapiens) of 88%, an Activity [4] of 72% and an Activity [5] of 6%. The Activity [6] was 95%, the Activity [7] was 91% and the Activity [8] was 67%. It also gave an Activity [9] of 107%, an Activity [10] of 97% and an Activity [11] of 94%. It also gave an Activity [12] of 94%, an Activity [13] of 93% and an Activity [14] of 90%. For the same compound, the Activity [15] was 95% and the Activity [16] was 85%.
